Experimental data from PubChem BioAssay (NCI).
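Exposure lasted 48 hours, with cells grown in 96-well plates and compounds tested at five concentrations. At the GI50, growth is halved. TGI denotes the concentration required for complete inhibition of growth.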

Experiments:
Assay in all cases: NCI tumour cell line growth inhibition, 48 h
[1] = test system: A549 NSCLC
[2] = test system: ACHN renal
[3] = test system: HOP-62 NSCLC
[4] = test system: IGROV1 ovarian
[5] = test system: M14 melanoma
[6] = test system: MALME-3M melanoma
[7] = test system: SK-MEL-2 melanoma
[8] = test system: SK-MEL-5 melanoma

| Compound | GI50 [1] | TGI [1] | GI50 [2] | TGI [2] | GI50 [3] | TGI [3] | GI50 [4] | TGI [4] | GI50 [5] | TGI [5] | GI50 [6] | TGI [6] | GI50 [7] | TGI [7] | GI50 [8] | TGI [8] |
| --- | --- | --- | --- | --- | --- | --- | --- | --- | --- | --- | --- | --- | --- | --- | --- | --- |
| COc1ccc(-c2nc(-c3nc4ccc(C)cc4[nH]3)cc3c2[nH]c2ccccc23)cc1 | 3.43 µM | > 100 µM | 3.05 µM | > 100 µM | 5.78 µM | > 100 µM | 3.58 µM | > 100 µM | 3.09 µM | 11.7 µM | 5.1 µM | 72.5 µM | 3.11 µM | 9.22 µM | 3.12 µM | 12.6 µM |
| Cc1ccc(-c2nc(/C=N/Nc3cc(C)nc4ccc(Cl)cc34)c(C)o2)cc1 | 1.83 µM | 3.77 µM | 1.68 µM | 3.05 µM | 1.88 µM | 3.58 µM | 1.81 µM | 3.48 µM | 1.8 µM | 3.49 µM | 1.94 µM | 3.67 µM | 2.01 µM | 4.11 µM | 1.76 µM | 3.15 µM |
| COc1ccc(-c2cncn2-c2cc(OC)c(OC)c(OC)c2)cc1 | 0.471 µM | > 63.8 µM | 0.366 µM | 49.4 µM | 0.101 µM | > 71.6 µM | < 0.0157 µM | 1.53 µM | 0.179 µM | 12.7 µM | < 0.0163 µM |  | 0.045 µM | > 100 µM | 0.0523 µM | 5.25 µM |
| O=C1CSC(c2ccccc2Cl)N1c1nnc(Cn2cnnc2)o1 (stereo not drawn) | 18 µM | > 100 µM | 14.3 µM | 48.6 µM | 17.6 µM | 44.6 µM | 17 µM | > 100 µM | 6.06 µM | 24.7 µM | 6.84 µM | 30.6 µM | 22.6 µM | 94.8 µM | 7.81 µM | 21.2 µM |
| COc1cc(C2C3=C(COC3=O)N(CCO)c3cc4c(cc32)OCCO4)cc(OC)c1OC (stereo not drawn) | 0.487 µM | > 50 µM | 1.7 µM | > 50 µM | 0.465 µM | > 50 µM | 0.165 µM | 0.898 µM | 0.181 µM |  | > 50 µM | > 50 µM | 0.173 µM | 4.55 µM | 0.179 µM | 0.916 µM |
| COc1ccccc1S(=O)(=O)Nc1ccc2c3c(cc(CCC(=O)NCCCCNc4cccc5c4C(=O)N(C4CCC(=O)NC4=O)C5=O)cc13)C(=O)N2C (stereo not drawn) | 5.73 µM | > 100 µM | > 100 µM | > 100 µM | 0.416 µM | 4.94 µM | 0.14 µM | > 100 µM | 1.11 µM | > 100 µM | 0.0915 µM | 0.559 µM | 0.762 µM | > 27.4 µM | 0.982 µM | 3.32 µM |
| CCOC(=O)C(Cc1ccc(N(CCCl)CCCl)cc1)NC(=O)C(Cc1ccccc1)NC=O (stereo not drawn) |  | 0.727 µM |  | 0.105 µM |  | 0.388 µM |  | 0.222 µM |  | 0.31 µM |  | 0.191 µM |  | 0.989 µM |  | 0.355 µM |
| CCCc1cc(=O)n2c(C(=O)Nc3ccc(F)cc3)c(C(=O)Nc3ccc(F)cc3)sc2n1 | 17.5 µM | 40 µM | 17.3 µM | 57.7 µM | 2.29 µM | 33.2 µM | 30.3 µM | 148 µM | 23.5 µM | 81 µM | 36 µM | 91.3 µM | 24.1 µM | 54.4 µM | > 160 µM | > 160 µM |
